Test results from US9789096B2, “Methods and compositions for selective and targeted cancer therapy” (Board of Regents of the University of Texas System, priority 2013, dated 2017).
Like-named read-outs stand apart in the source and are kept apart here.

Legend:
[1] = system: HCC4017; experiment: Cell viability dose-response, HCC4017; format: cell-based, human; conditions: Homo sapiens, HCC4017, Tables 3 and 4; read-out: IC50 (uM) vs indicated non-small cell lung cancer cell line HCC4017
In short: (§1)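 Cells at 15% confluence in RPMI-1640 with 5% FBS and 2 mM L-glutamine were exposed to compound for 4 days. Viability was measured as ATP by CellTiter-Glo. Dose-responses used 12 points from 50 micromolar in 3-fold steps, in duplicate; IC50 from dose-response curves.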

[2] = system: HBEC30KT; experiment: Cell viability (ATP, Cell Titer Glo, 4 days), HBEC30KT; format: cell-based, human; conditions: Homo sapiens, Tables 3 and 4; read-out: HBEC30KT IC50
[3] = system: H1993; experiment: Cell viability dose-response, H1993; format: cell-based; conditions: Homo sapiens, NCI-H1993; Tables 3 and 4; read-out: IC50 (uM) vs indicated non-small cell lung cancer cell line H1993
Method: (§2) FIG. 6A. […] Cell viability is plotted vs. compound concentration. Compound was added to cells plated at 15% confluence in 96-well plates in RPMI-1640 media supplemented with 5% Fetal Bovine Serum and 2 mM L-Glutamine. After 4 days of incubation, ATP levels were measured using Cell Titer Glo (Promega). Data are presented as the average of 2 replicates ±SEM.
(§3) Selectivity may be measured by the half maximal inhibitory concentration (IC50), which, as used herein, is a measure of the effectiveness of a compound in killing cells. This quantitative measure indicates how much of a particular compound is needed to kill a particular cell population by half (e.g., as indicated by the amount of ATP). […] The IC50 can be determined by constructing a dose-response curve. The lower the IC50, the higher the potency, and the greater the difference between IC50 values for different cell lines (e.g., sensitive lines vs. insensitive lines, and sensitive lines vs. normal lines) the greater the selectivity. […]
(§4) With this information, we synthesized and tested a series of small molecules derived in conception from the oxalamide and chromone scaffold including N-acyl ureas, as shown in Tables 6-8. Each compound was tested in a 12-point dose-response study starting at 50 micromolar and decreasing in 3-fold increments to sub-nanomolar concentrations, in duplicate. Additionally, one or more additional cell line was tested in the same way.

[4] = system: 3 human bronchial epithelial (HBEC) cell lines; experiment: Vitality of human bronchial epithelial (HBEC) cell lines; format: cell-based; conditions: at 10 μM
Method: (§5) In addition, N-acyl benzothiazoles was also discovered, such as 4-amino-N-(6-methoxybenzo[d]thiazol-2-yl)benzamide (ATB). We compared the proliferation of 12 lung adenocarcinoma cell lines and three HBEC lines after the addition of ATB.
(§6) We subsequently synthesized various derivatives that are both selective and potent (Tables 1 and 2). One leading candidate is a benzothiazole, SW202857, that inhibits proliferation in three of 12 adenocarcinoma cell lines at concentrations less than 10 nM.

[5] = system: about 300 protein kinase enzymes; experiment: Kinase inhibition assays (EMD Millipore); format: biochemical, human
Method: (§7) Specifically, kinase inhibition assays were performed at EMD Millipore at 1, 10 and 100 nM SW202857 and individually optimized concentrations of ATP. […] Listed kinases are the human enzyme unless indicated: mouse (m), rat (r), yeast (y).

[6] = system: H2122 cells; experiment: Metabolism by sensitive cells (HPLC/MS/MS); format: in vitro ADME, human
Method: FIGS. 9A-9D. Selective toxins selectively cross-link to SCD1 in sensitive cells and are selectively metabolized in sensitive cells. FIG. 9A. 12 NSCLC cell lines were incubated with SW208108 and processed as described in FIG. 7. […] FIG. 9B. […] FIG. 9C. […] Demethylation is the anticipated mode of metabolism. FIG. 9D. A representative benzothiazole is demethylated by sensitive cell lines. […] Values in FIGS. 9C and 9D were obtained by tandem HPLC/MS/MS.
In this context, 12 different NSCLC cell lines were treated with SW208108, lysed and clicked to a dye as previously described. […] To understand how SW208108 could selectively cross-link to SCD1 within some cell lines that expressed the enzyme but not other cell lines that expressed the same enzyme, we investigated the stability of a representative oxalamide in the presence of a sensitive and insensitive cell line. […] Similarly, a representative benzothiazole was metabolized by H2122 cells through, at least in part, the loss of the O-methyl group (FIG. 9D).

[7] = system: HCC44; experiment: Cell viability dose-response, HCC44; format: cell-based, human; conditions: Homo sapiens, HCC44, Tables 3 and 4; read-out: IC50 (uM) vs indicated non-small cell lung cancer cell line HCC44
In short: as §1

[8] = system: H2122; experiment: Cell viability dose-response, H2122; format: cell-based, human; conditions: Homo sapiens
In short: (§8)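 Cells plated at 15% confluence in RPMI-1640 with 5% FBS and 2 mM L-glutamine, treated with compound in a 12-point, 3-fold dilution series from 50 micromolar, in duplicate. ATP measured by Cell Titer Glo after 4 days; IC50 taken from the dose-response curve.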

[9] = system: H2009; experiment: Cell viability dose-response, H2009; format: cell-based, human; conditions: Homo sapiens, NCI-H2009; Tables 3 and 4; read-out: IC50 (uM) vs indicated non-small cell lung cancer cell line H2009
In short: as §1

[10] = system: H1395; experiment: Cell viability dose-response, H1395; format: cell-based; conditions: Homo sapiens, NCI-H1395; Tables 3 and 4; read-out: IC50 (uM) vs indicated non-small cell lung cancer cell line H1395
Method: as §2, §3, §4

[11] = Stability in mouse liver S9 fractions; format: in vitro ADME
[12] = system: HCC95; experiment: Cell viability dose-response, HCC95; format: cell-based; conditions: Homo sapiens, Tables 3 and 4, read-out: IC50 (uM) vs indicated non-small cell lung cancer cell line HCC95
Method: as §2, §3, §4

[13] = target: T1, GSK3beta (Homo sapiens, UniProt P49841); experiment: Kinase inhibition assay (EMD Millipore), GSK3beta; format: biochemical; conditions: 100 nM
T1 construct: purchased EMD Millipore
Method: as §7

[14] = system: H460; experiment: Cell viability dose-response, H460; format: cell-based; conditions: Homo sapiens, NCI-H460; Tables 3 and 4; read-out: IC50 (uM) vs indicated non-small cell lung cancer cell line H460
Method: as §2, §3, §4

[15] = system: H2073; experiment: Cell viability dose-response, H2073; format: cell-based, human; conditions: Homo sapiens, NCI-H2073, Tables 3 and 4; read-out: IC50 (uM) vs indicated non-small cell lung cancer cell line H2073
In short: as §1

[16] = system: H1819; experiment: Cell viability dose-response, H1819; format: cell-based, human; conditions: Homo sapiens, NCI-H1819, Tables 3 and 4; read-out: IC50 (uM) vs indicated non-small cell lung cancer cell line H1819
In short: as §8

[17] = system: 12 lung adenocarcinoma cell lines; experiment: Proliferation of the panel of 12 lung adenocarcinoma cell lines; format: cell-based, human
Method: as §2
To discover selective agents, twelve cell lines of diverse genotype were selected for analysis. 108 lung cancer cell lines were initially clustered into six groups based on mRNA expression of genes that underwent frequent copy number variation. Two cell lines were chosen from each group for high throughput chemical screening. All 12 of the chosen cell lines were derived from lung adenocarcinomas, eliminating both lineage and histology as confounders. None of the cell lines chosen for screening harbored EGFR mutations or ALK rearrangements, so that the final set represented a collection of diverse lung adenocarcinoma genotypes for which there are no targeted therapy.
The proliferative impact of each compound in the library was assayed by analyzing total ATP four days after administration of 2.5 μM in a single well. This first pass yielded 15,843 toxins defined as a compound where ATP levels were […] three standard deviations below the mean for at least one cell line. For each of these putative toxins, the average effect on proliferation was retested on each cancer cell line and a non-cancerous immortalized HBEC line (control), yielding a confirmation dataset.
as §5, §6

[18] = system: H1155; experiment: Cell viability dose-response, H1155; format: cell-based; conditions: Homo sapiens, NCI-H1155; Tables 3 and 4; read-out: IC50 (uM) vs indicated non-small cell lung cancer cell line H1155
Method: as §2, §3, §4

[19] = system: H2122 xenografts; experiment: In vivo efficacy, H2122 xenografts in NOD/SCID mice; design: species or system mouse; conditions: 25 mg/kg IP twice daily
Method: (§9) FIG. 6C. […] NOD/SCID mice were injected with either H2122 (sensitive) or H1155 (insensitive) cells subcutaneously on day 0. When tumors reached 200 cubic mm, treatment with SW203668 (listed as A2) or vehicle was initiated (as indicated by the arrow) with twice daily doses of 25 mg/kg, IP. Tumor size was measured every 3 days for the duration of the study. Data are plotted as mean±SEM; n=12 for each group.

[20] = system: H1155 xenografts; experiment: In vivo efficacy, H1155 xenografts in NOD/SCID mice; design: species or system mouse; conditions: 25 mg/kg IP twice daily
Method: as §9

[21] = ADME for xenograft studies; format: in vivo
[22] = system: H2122 cells; experiment: Toxicity to H2122 cells with or without CYP4 inhibitor HET0016; format: cell-based, human
[23] = system: HopS62; experiment: Cell viability dose-response, HopS62; format: cell-based; conditions: Homo sapiens; Table 4; read-out: IC50 (uM) vs indicated non-small cell lung cancer cell line HopS62
Method: as §2
Selectivity may be measured by the half maximal inhibitory concentration (IC50), which, as used herein, is a measure of the effectiveness of a compound in killing cells. This quantitative measure indicates how much of a particular compound is needed to kill a particular cell population by half (e.g., as indicated by the amount of ATP). […] The IC50 can be determined by constructing a dose-response curve. The lower the IC50, the higher the potency, and the greater the difference between IC50 values for different cell lines (e.g., sensitive lines vs. insensitive lines, and sensitive lines vs. normal lines) the greater the selectivity.
as §4, with “Additionally, one or more additional cell line was tested in the same way.” left out

[24] = NCI-H2122, Table 9, competitor, read-out: IC50 to H2122 cells
[25] = NCI-H2122, Tables 3 and 4, read-out: IC50 (uM) vs indicated non-small cell lung cancer cell line H2122

T1 sequence (P49841 whole entry): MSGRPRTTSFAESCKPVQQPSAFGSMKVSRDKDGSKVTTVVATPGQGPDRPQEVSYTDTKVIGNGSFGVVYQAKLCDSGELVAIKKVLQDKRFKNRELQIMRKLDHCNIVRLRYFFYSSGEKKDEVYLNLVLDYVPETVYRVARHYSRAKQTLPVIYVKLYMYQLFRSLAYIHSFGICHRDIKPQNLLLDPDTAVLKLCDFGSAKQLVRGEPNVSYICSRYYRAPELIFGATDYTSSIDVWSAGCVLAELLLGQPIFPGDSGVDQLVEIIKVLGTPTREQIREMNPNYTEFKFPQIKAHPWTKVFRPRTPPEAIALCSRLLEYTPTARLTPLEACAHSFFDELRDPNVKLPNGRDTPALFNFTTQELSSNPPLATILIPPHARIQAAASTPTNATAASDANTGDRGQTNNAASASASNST

`COc1ccc2nc(NC(=O)c3ccc(C(=O)c4ccccc4)cc3)sc2c1` [SW202857-1, 4-benzoyl-N-(6-methoxybenzo[d]thiazol-2-yl)benzamide] showed an IC50 [1] of 32.6 µM, an IC50 [2] of 22800 nM and an IC50 [3] of 21.3 µM. For the same molecule, the “vitality of 3 human bronchial epithelial (HBEC) cell lines” value [4] was “nor does it affect the vitality”, the “inhibition of about 300 protein kinase enzymes in vitro” value ([5]; 0.10 μM) was “failed to inhibit” and the “inhibition, all other kinases” value ([5]; highest concentration (100 nM)) was no more than 15%. For the same molecule, the “metabolism by sensitive H2122 cells” value [6] was “demethylated”, the IC50 [7] was 0.0236 µM and the IC50 [8, 24] was 0.00923 µM. It also gave an IC50 [8, 25] of 0.00839 µM, an IC50 [9] of 3.16 µM and an IC50 [10] of 31.8 µM. The “stability in the presence of mouse liver S9 fractions” value [11] was “chemically stable”, the IC50 [12] was 10.8 µM and the inhibition at 0.1 µM [13] was 21%. It also gave an IC50 [14] of 0.046 µM, an IC50 [15] of 0.0185 µM and an IC50 [16] of 42.7 µM. The “toxic concentration against four sensitive cell lines” value ([17]; four sensitive cell lines) was “less than 50 nM”, the “concentration that inhibits proliferation in three of 12 adenocarcinoma cell lines” value ([17]; three sensitive lines) was “less than 10 nM” and the “toxic effect on the other 9 adenocarcinoma cell lines” value ([17]; up to 10 μM) was “no toxic effect”. It also gave an IC50 [18] of 22.3 µM.
For `COc1ccc2nc(NC(=O)c3ccc(C(N)c4ccccc4)cc3)sc2c1` (stereo not shown) [SW203668], the “tumor growth inhibition in H2122 xenografts” value [19] was “selective toxicity”, the IC50 [8, 25] was 0.035 µM and the “tumor growth inhibition in H1155 xenografts” value [20] was “but not H1155 xenografts”. The “absorption, distribution, metabolism, and excretion (ADME)” value [21] was “appropriate absorption, distribution, metabolism, and excretion”.
With `COc1ccc(CCNC(=O)NC(=O)c2ccc(Oc3ccccc3)cc2)cc1` [SW208456] the “toxicity to H2122 cells in the presence of CYP450 inhibitor HET0016” value [22] was “rescued” and the IC50 [8, 24] was 0.0134 µM.
With `O=C(NCCc1ccc(O)cc1)NC(=O)c1ccc(Oc2ccccc2)cc1` [SW208523] the “toxicity to H2122 cells in the presence of CYP450 inhibitor HET0016” value [22] was “toxic to H2122 cells in the presence or absence of the CYP450 inhibitor” and the IC50 [8, 24] was 0.0197 µM.
In the case of `O=C(Nc1nc2ccccc2o1)c1ccc(C(=O)c2ccccc2)cc1` [SW208665-1], the IC50 [7] is reported as 2.14 µM, the IC50 [8, 24] is reported as 0.8 µM and the IC50 [8, 25] is reported as 42.7 µM. For the same molecule, the IC50 [23] was 1.93 µM.
Work on `O=C(Nc1nc2c(s1)CCC2)c1ccc(C(=O)c2ccccc2)cc1` [SW208666-1] yielded an IC50 [7] of 3.52 µM, an IC50 [8, 25] of 0.26 µM and an IC50 [23] of 0.09 µM.
